# Measured values reported in ChEMBL document CHEMBL4014300, “Synthesis and biological evaluation of novel quinazoline-sulfonamides as anti-cancer agents” (Bioorg Med Chem Lett, 2017).
# Calls of active or inactive are those of the source. No cut-off for these calls is given here.
# Experiments:
# [1] = test system: COLO 205; test: Cytotoxicity against human COLO205 cells assessed as reduction in cell viability at 100 ug/ml after 24 hrs by MTT assay; format: functional, cell-based
# [2] = test system: U-937; test: Cytotoxicity against human U937 cells assessed as reduction in cell viability after 24 hrs by MTT assay; format: functional, cell-based; conditions: U-937, 24 h
# [3] = test system: DU-145; test: Cytotoxicity against human DU145 cells assessed as reduction in cell viability after 24 hrs by MTT assay; format: functional, cell-based; conditions: DU-145, 24 h
# [4] = test system: SK-OV-3; test: Cytotoxicity against human SKOV3 cells assessed as reduction in cell viability after 24 hrs by MTT assay; format: functional, cell-based; conditions: SK-OV-3, 24 h
# [5] = test system: THP-1; test: Cytotoxicity against human THP1 cells assessed as reduction in cell viability after 24 hrs by MTT assay; format: functional, cell-based; conditions: THP-1, 24 h
# [6] = test system: FHC; test: Cytotoxicity against human FHC cells assessed as reduction in cell viability at 100 ug/ml after 24 hrs by MTT assay; format: cell-based
# [7] = test system: U-937; test: Cytotoxicity against human U937 cells assessed as reduction in cell viability at 100 ug/ml after 24 hrs by MTT assay; format: functional, cell-based
# [8] = test system: DU-145; test: Cytotoxicity against human DU145 cells assessed as reduction in cell viability at 100 ug/ml after 24 hrs by MTT assay; format: functional, cell-based
# [9] = test system: SK-OV-3; test: Cytotoxicity against human SKOV3 cells assessed as reduction in cell viability at 100 ug/ml after 24 hrs by MTT assay; format: functional, cell-based
# [10] = test system: THP-1; test: Cytotoxicity against human THP1 cells assessed as reduction in cell viability at 100 ug/ml after 24 hrs by MTT assay; format: functional, cell-based
# [11] = test system: COLO 205; test: Cytotoxicity against human COLO205 cells assessed as reduction in cell viability after 24 hrs by MTT assay; format: functional, cell-based; conditions: COLO 205, 24 h
# [12] = test system: FHC; test: Cytotoxicity against human FHC cells assessed as reduction in cell viability after 24 hrs by MTT assay; format: cell-based
Structure (SMILES),Activity [1],IC50 [2],IC50 [3],IC50 [4],IC50 [5],Activity [6],Activity [7],Activity [8],Activity [9],Activity [10],IC50 [11],IC50 [12]
COc1cc2nc(Cl)nc(NS(=O)(=O)c3cccc4ccccc34)c2cc1OC,inactive,35.3 µg/mL,63.6 µg/mL,95.3 µg/mL,82.4 µg/mL,Non-Toxic,–,–,–,–,–,–
COc1cc2nc(N3CCOCC3)nc(NS(=O)(=O)c3cccc4c3OCO4)c2cc1OC,inactive,–,–,–,71.6 µg/mL,Non-Toxic,inactive,inactive,inactive,–,–,–
COc1cc2nc(Cl)nc(NS(=O)(=O)C3CC3)c2cc1OC,inactive,–,–,–,–,Non-Toxic,inactive,inactive,inactive,inactive,–,–
COc1cc2nc(N3CCOCC3)nc(NS(=O)(=O)c3cccc(C(F)(F)F)c3)c2cc1OC,–,28.7 µg/mL,45.8 µg/mL,50.5 µg/mL,38.8 µg/mL,Non-Toxic,–,–,–,–,61.8 µg/mL,–
COc1cc2nc(Cl)nc(NS(=O)(=O)c3cccs3)c2cc1OC,–,10.1 µg/mL,16.4 µg/mL,19.1 µg/mL,11.2 µg/mL,–,–,–,–,–,27.5 µg/mL,98.7 µg/mL
COc1cc2nc(Cl)nc(NS(=O)(=O)c3cccc4c3OCO4)c2cc1OC,inactive,89.6 µg/mL,–,78.1 µg/mL,48.6 µg/mL,Non-Toxic,–,inactive,–,–,–,–
COc1cc2nc(Cl)nc(NS(=O)(=O)c3ccccc3)c2cc1OC,–,6.06 µg/mL,12.3 µg/mL,9.23 µg/mL,8.17 µg/mL,–,–,–,–,–,19 µg/mL,73 µg/mL
COc1cc2nc(N3CCOCC3)nc(NS(=O)(=O)C3CC3)c2cc1OC,–,8.09 µg/mL,25.1 µg/mL,32.1 µg/mL,13.8 µg/mL,–,–,–,–,–,49.1 µg/mL,73.2 µg/mL
COc1cc2nc(Cl)nc(NS(=O)(=O)Cc3ccccc3)c2cc1OC,inactive,91.7 µg/mL,–,–,–,Non-Toxic,–,inactive,inactive,inactive,–,–
COc1cc([C@@H]2c3cc4c(cc3[C@@H](O[C@@H]3O[C@@H]5CO[C@@H](C)O[C@H]5[C@H](O)[C@H]3O)[C@H]3COC(=O)[C@H]23)OCO4)cc(OC)c1O [ETOPOSIDE],–,2.89 µg/mL,6.17 µg/mL,3.84 µg/mL,4.42 µg/mL,–,–,–,–,–,5.12 µg/mL,49.3 µg/mL
COc1cc2nc(Cl)nc(NS(=O)(=O)Cc3cccc(I)c3)c2cc1OC,inactive,66.5 µg/mL,–,–,96.2 µg/mL,Non-Toxic,–,inactive,inactive,–,–,–
COc1cc2nc(Cl)nc(NS(=O)(=O)c3ccc(C)cc3)c2cc1OC,–,39.9 µg/mL,44.2 µg/mL,–,33.5 µg/mL,Non-Toxic,–,–,inactive,–,91.3 µg/mL,–
COc1cc2nc(N3CCCC3)nc(NS(=O)(=O)c3cccs3)c2cc1OC,inactive,–,–,–,–,Non-Toxic,inactive,inactive,inactive,inactive,–,–
COc1cc2nc(Cl)nc(NS(=O)(=O)c3ccc(C)cc3C)c2cc1OC,–,65.1 µg/mL,47.8 µg/mL,25.8 µg/mL,40.4 µg/mL,–,–,–,–,–,49 µg/mL,73.1 µg/mL
COc1cc2nc(N3CCCC3)nc(NS(=O)(=O)c3ccc(C)cc3)c2cc1OC,–,8.61 µg/mL,14.1 µg/mL,20 µg/mL,7.06 µg/mL,–,–,–,–,–,24.1 µg/mL,48.1 µg/mL
COc1cc2nc(N3CCOCC3)nc(NS(=O)(=O)c3ccc(C)cc3)c2cc1OC,–,–,51.3 µg/mL,–,92.5 µg/mL,Non-Toxic,inactive,–,inactive,–,44.2 µg/mL,–
COc1cc2nc(N3CCCC3)nc(NS(=O)(=O)c3cccc(C(F)(F)F)c3)c2cc1OC,–,16 µg/mL,65.1 µg/mL,22.1 µg/mL,15.9 µg/mL,Non-Toxic,–,–,–,–,78 µg/mL,–
COc1ccc(S(=O)(=O)Nc2nc(Cl)nc3cc(OC)c(OC)cc23)cc1C,–,41.1 µg/mL,39.5 µg/mL,68.1 µg/mL,79 µg/mL,Non-Toxic,–,–,–,–,57 µg/mL,–
COc1cc2nc(N3CCCC3)nc(NS(=O)(=O)C3CC3)c2cc1OC,–,6.43 µg/mL,11.1 µg/mL,17.6 µg/mL,9.13 µg/mL,–,–,–,–,–,10.2 µg/mL,66.6 µg/mL
COc1cc2nc(Cl)nc(NS(=O)(=O)c3cccc(C(F)(F)F)c3)c2cc1OC,–,59 µg/mL,23.1 µg/mL,32.3 µg/mL,36.4 µg/mL,Non-Toxic,–,–,–,–,99 µg/mL,–
COc1cc2nc(Cl)nc(NS(C)(=O)=O)c2cc1OC,inactive,–,–,88 µg/mL,99.7 µg/mL,–,inactive,inactive,–,–,–,88.1 µg/mL
COc1ccc(S(=O)(=O)Nc2nc(Cl)nc3cc(OC)c(OC)cc23)cc1,inactive,–,–,–,–,Non-Toxic,inactive,inactive,inactive,inactive,–,–
